The subject of this series is GENE-TOX genotoxicity assays, various organisms and cells. In words: GENE-TOX mutagenicity studies. Particulars: for call: Assay Type: In vivo carcinogenicity studies.
Setting [1] is: Species/Cell Type: Salmonella typhimurium (one or more of the five standard strains: TA98, TA100, TA1535, TA1537, and TA1538), Assay Type: Histidine reverse gene mutation, Ames assay, Assay Code: SAL-, Evaluation Type: Evaluation A (Pre-1980).
The mark [2] stands for this setting: Species/Cell Type: Drosophila melanogaster, Assay Type: Sex-linked recessive lethal gene mutation, Assay Code: SRLT, Evaluation Type: Evaluation A (Pre-1980).
[3] abbreviates: Species/Cell Type: Rodents, Sex: Male, Assay Type: Dominant lethal test, Assay Code: DLT-, Evaluation Type: Evaluation A (Pre-1980).
[4] abbreviates: Species/Cell Type: Salmonella typhimurium (one or more of the five standard strains: TA98, TA100, TA1535, TA1537, and TA1538), Assay Type: Histidine reverse gene mutation, Ames assay, Assay Code: SAL+, Evaluation Type: Evaluation A (Pre-1980).
The mark [5] stands for this setting: Species/Cell Type: Bacillus subtilis (H17 vs M45), Assay Type: Rec-assay, spot test, DNA effects (bacterial DNA repair), Assay Code: REW+, Evaluation Type: Evaluation A (Pre-1980).
The mark [6] stands for this setting: Species/Cell Type: Salmonella typhimurium (one or more of the five standard strains: TA98, TA100, TA1535, TA1537, and TA1538), Assay Type: Histidine reverse gene mutation, Ames assay, Assay Code: SALT, Evaluation Type: Evaluation A (Pre-1980).
Where [7] appears, read: Species/Cell Type: Mammalian polychromatic erythrocytes, Assay Type: Micronucleus test, chromosome aberrations, Assay Code: MNTT, Evaluation Type: Evaluation B (Post-1980).
[8] abbreviates: Species/Cell Type: Nonhuman, Assay Code: CCGT, Evaluation Type: Evaluation A (Pre-1980).
Setting [9] is: Species/Cell Type: Saccharomyces cerevisiae, Assay Type: Mitotic recombination or gene conversion, Assay Code: YEC-, Evaluation Type: Evaluation A (Pre-1980).
Where [10] appears, read: Species/Cell Type: Nonhuman, Assay Code: CCG+, Evaluation Type: Evaluation A (Pre-1980).
Where [11] appears, read: Species/Cell Type: Human, Sex: Male, Assay Type: Sperm morphology, Assay Code: SPH+, Evaluation Type: Evaluation A (Pre-1980).
The mark [12] stands for this setting: Species/Cell Type: Mouse, Sex: Male, Assay Type: Sperm morphology, Assay Code: SPI-, Evaluation Type: Evaluation A (Pre-1980).

Activity calls are given as the source filed them. No rule for the calls is given here.

For the compound `O=C(O)c1c(Br)c(Br)c(Br)c(Br)c1C(=O)O`, the mutagenic call under setting [1] was “inactive; negative”.

Take `OC[C@@H](O)[C@@H](O)[C@H](O)[C@@H](O)CO`: the mutagenic call (Species/Cell Type: Drosophila melanogaster, Assay Type: Aneuploidy, whole sex chromosome loss, chromosome aberrations, Assay Code: DAC-M, Evaluation Type: Evaluation A (Pre-1980)) is “inactive; negative”; the mutagenic call under setting [2] is listed as “no conclusion”; the mutagenic call under setting [3] is “inactive; negative”.

With `Cc1ccc(Nc2ccc3c4c(cccc24)C(=O)c2ccccc2-3)cc1`, under setting [4], the mutagenic call was “active; positive”.

On to `CCCCBr`, for which the mutagenic call (Species/Cell Type: Escherichia coli polA (W3119 vs P3478), Assay Type: Rec-assay, DNA effects (bacterial DNA repair), Assay Code: RE1T, Evaluation Type: Evaluation A (Pre-1980)) is recorded as “no conclusion”.

Turning to `CC(=O)O/C=C/Cc1ccc2c(c1)OCO2`, for the setting “Species/Cell Type: Human diploid fibroblasts, Assay Type: Unscheduled DNA synthesis (UDS) in vitro, DNA effects, Assay Code: UDH+, Evaluation Type: Evaluation A (Pre-1980)”, the mutagenic call is “active; positive”.

`CCC(C)c1cc([N+](=O)[O-])cc([N+](=O)[O-])c1O` (stereo not given): the mutagenic call is “active; positive” under setting [5]; “no conclusion” under setting [2]; “inactive; negative” (Species/Cell Type: Escherichia coli WP2 UVRA, Assay Type: Tryptophan reverse gene mutation, Assay Code: WPU-*, Activation: With metabolic activation, Evaluation Type: Evaluation A (Pre-1980)); “active; positive” (Species/Cell Type: Escherichia coli polA (W3119 vs P3478), Assay Type: Rec-assay, DNA effects (bacterial DNA repair), Assay Code: RE1+, Evaluation Type: Evaluation A (Pre-1980)); “inactive; negative” (Species/Cell Type: Human diploid fibroblasts, Assay Type: Unscheduled DNA synthesis (UDS) in vitro, DNA effects, Assay Code: UDH-, Evaluation Type: Evaluation A (Pre-1980)); “active; positive” (Species/Cell Type: Saccharomyces cerevisiae, Assay Type: Mitotic recombination or gene conversion, Assay Code: YEC+, Evaluation Type: Evaluation A (Pre-1980)). The mutagenic call (Species/Cell Type: Saccharomyces cerevisiae, Assay Type: Mitotic recombination or gene conversion, Assay Code: YEH-, Evaluation Type: Evaluation A (Pre-1980)) was “inactive; negative” and the mutagenic call under setting [6] is “no conclusion”.

As for `Cc1cc(=O)n(-c2ccccc2)n1C`, under setting [1], the mutagenic call is “inactive; negative”.

For the compound `COc1c(C)c2c(c(O)c1C/C=C(\C)CCC(=O)O)C(=O)OC2`, the mutagenic call was “inactive; negative” (Species/Cell Type: Bacillus subtilis (H17 vs M45), Assay Type: Rec-assay, spot test, DNA effects (bacterial DNA repair), Assay Code: REW-, Evaluation Type: Evaluation A (Pre-1980)); “active; positive” (Species/Cell Type: Nonhuman, Assay Type: Chromosome aberrations in vitro, Assay Code: CY&+, Evaluation Type: Evaluation A (Pre-1980)); “no conclusion” under setting [6].

Consider `[Cl][Ir-2]([Cl])([Cl])([Cl])([Cl])[Cl]`, for which the mutagenic call under setting [5] is “active; positive”.

With `CCN(CC)c1ccc2nc3ccc(N=Nc4ccc(N(C)C)cc4)cc3[n+](-c3ccccc3)c2c1`, the mutagenic call (Species/Cell Type: Bacillus subtilis (H17 vs M45T), Assay Type: Rec-assay, spot test, DNA effects (bacterial DNA repair), Assay Code: REXT, Evaluation Type: Evaluation A (Pre-1980)) was “no conclusion”.

Consider `C1CN1P1(N2CC2)=NP(N2CC2)(N2CC2)=NP(N2CC2)(N2CC2)=N1`, for which the mutagenic call is, setting by setting: (Species/Cell Type: Neurospora crassa, Assay Type: Forward gene mutation, Assay Code: NEF+, Evaluation Type: Evaluation A (Pre-1980)) “active; positive”; (Species/Cell Type: Nonhuman, Assay Type: Sister-chromatid exchange (SCE) in vivo, Assay Code: SC3+, Evaluation Type: Evaluation B (Post-1980)) “active; positive”.

Turning to `Nc1ccc(Nc2ccccc2)cc1`, under “Species/Cell Type: Neurospora crassa, Assay Type: Aneuploidy, chromosome aberrations, Assay Code: NEN-, Evaluation Type: Evaluation A (Pre-1980)”, the mutagenic call is “inactive; negative”. The call (Species/Cell Type: Nonhuman, Assay Code: CCG-L, Evaluation Type: Evaluation A (Pre-1980)) is “inactive; negative”.

As for `C[C@@H]1O[C@@H](OC[C@H]2O[C@@H](Oc3c(-c4ccc(O)c(O)c4)oc4cc(O)cc(O)c4c3=O)[C@H](O)[C@@H](O)[C@@H]2O)[C@H](O)[C@H](O)[C@H]1O`, the mutagenic call under setting [7] was “no conclusion”.

Take `NP(=S)(N1CC1)N1CC1`: the mutagenic call (Species/Cell Type: Human lymphocytes, Assay Type: Sister-chromatid exchange (SCE) in vitro, Assay Code: SCL+D, Dose Response: With dose response, Evaluation Type: Evaluation B (Post-1980)) was “active; positive”; the mutagenic call (Species/Cell Type: Human, Assay Type: Sister-chromatid exchange (SCE) in vitro, Assay Code: SC1+D, Dose Response: With dose response, Evaluation Type: Evaluation B (Post-1980)) was “active; positive”; the mutagenic call (Species/Cell Type: Nonhuman, Assay Type: Sister-chromatid exchange (SCE) in vitro, Assay Code: SC2+D, Dose Response: With dose response, Evaluation Type: Evaluation B (Post-1980)) is “active; positive”.

On to `NC=O`, for which the mutagenic call reads like this: (Species/Cell Type: Fischer rat embryo (RLV/1706) cells, Assay Type: Cell transformation, viral enhanced, Assay Code: CTR-, Evaluation Type: Evaluation A (Pre-1980)) “inactive; negative”; (Species/Cell Type: Hordeum vulgare (barley), Assay Type: Chromosome aberrations, Assay Code: HOC+, Evaluation Type: Evaluation A (Pre-1980)) “active; positive”.

On to `Cc1c2ccccc2c(C)c2c1ccc1cc(O)ccc12`, for which the mutagenic call (Species/Cell Type: Chinese hamster lung (V79) cells, Assay Type: Forward gene mutation at the HPRT or ouabain locus, Assay Code: V79-*, Activation: With metabolic activation, Evaluation Type: Evaluation A (Pre-1980)) was “inactive; negative”. Under setting [8], the call was “no conclusion”.

For `Cc1c2c(c(C)c3c1ccc1ccccc13)C=C[C@@H](O)[C@@H]2O`, the mutagenic call reads like this: (Species/Cell Type: Chinese hamster lung (V79) cells, Assay Type: Forward gene mutation at the HPRT or ouabain locus, Assay Code: V79+, Evaluation Type: Evaluation A (Pre-1980)) “active; positive”; (Species/Cell Type: Mouse prostate cells, Assay Type: Cell transformation, Assay Code: CTM+D, Dose Response: With dose response, Evaluation Type: Evaluation A (Pre-1980)) “active; positive”. For the same compound, under setting [8], the call is reported as “no conclusion”.

Consider `NC[C@H](O)CCl`, for which the mutagenic call is “active; positive” (Species/Cell Type: Rat, Sex: Male, Assay Type: Sperm morphology, Assay Code: SPA+, Evaluation Type: Evaluation A (Pre-1980)) and “inactive; negative” under setting [3].

Regarding `CN(C)c1ccc2cc3ccc(=[N+](C)C)cc-3sc2c1`, the mutagenic call (Species/Cell Type: Saccharomyces cerevisiae, Assay Type: Reverse gene mutation, Assay Code: YER-, Evaluation Type: Evaluation A (Pre-1980)) was “inactive; negative”.

As for `Cn1c([N+](=O)[O-])cnc1-c1nc2ccccc2n1CCCN1CCOCC1`, the mutagenic call is “no conclusion” under setting [2] and “inactive; negative” under setting [9].

On to `Cc1cc(N)c(N)cc1C`, for which the mutagenic call under setting [7] is “no conclusion”.

Turning to `CC(Br)CBr` (stereo not given), the mutagenic call (Species/Cell Type: Drosophila melanogaster, Assay Type: Sex-linked recessive lethal gene mutation, Assay Code: SRL+, Evaluation Type: Evaluation A (Pre-1980)) is “active; positive”.

As to `Nc1ccc(Oc2ccc(N)c(Cl)c2)cc1Cl`, under setting [10], the call was “active; positive”.

On to `C[C@]12CC[C@H]3[C@@H](CCC4=CC(=O)CC[C@@]43C)[C@@H]1CC[C@@H]2O`, for which the mutagenic call is, setting by setting: under setting [11], “active; positive”; under setting [12], “inactive; negative”. In addition, under setting [10], the call was “active; positive”.

Regarding `CCN1CC[C@@H]2[C@@H](c3ccc(C)cc3)c3cc(C)ccc3[C@@H]2C1`, the mutagenic call is, setting by setting: under setting [12], “inactive; negative”; under setting [3], “inactive; negative”; under setting [6], “no conclusion”.

Consider `CCNc1nc(NC(C)(C)C)nc(OC)n1`, for which the mutagenic call under setting [9] is “inactive; negative”.

Take `CC[C@]1(O)CC[C@H]2[C@@H]3CCC4=CC(=O)CC[C@@H]4[C@H]3CC[C@@]21C`: the mutagenic call under setting [11] was “active; positive”.

For `CCCCN(CCCO)N=O`, the mutagenic call under setting [4] was “active; positive”.

For the compound `ON=C1CCCCC1`, the mutagenic call under setting [2] is given as “no conclusion”.

Take `CC(C)(OO)c1ccccc1`: the mutagenic call under setting [9] is “inactive; negative”.

(Values after PubChem BioAssay AID1259408 (Genetic Toxicology Data Bank (GENE-TOX), 2018).)
